The subject of data set [1] is C. elegans ZZ16 (lev-9(x16) X). Nature of the data set: microbe, parasite or virus in culture. Conditions: Caenorhabditis elegans, 48 h. On the procedure:
(§1) All strains were obtained from the Caenorhabditis Genetic Centre (CGC, Minneapolis, MN, USA). Strains were maintained at 20 °C on nematode growth medium (NGM). All worms were age-synchronized and obtained from eggs that were isolated by bleaching.
(§2) Young adult (L4 stage) worms were used to assess drug lethality. Monitored endpoint was 48 h mortality. Tests were performed in 24-well plates. Five hundred (500) microliters of test solution, which is M9-buffer (3 g KH2PO4, 6 g Na2HPO4, 5 g NaCl, 0.25 g MgSO4.7H2O, in 1 L of water after been autoclaved supplemented with 2% glucose, 0.5% cholesterol), were distributed in 24-well plates. The volume of M9-buffer equivalent to the drug to be added for each drug final concentration (in each test, three to six concentrations were used) was removed. Untreated worms in M9-buffer were used as negative control. […] Crude extract fraction (stock solution at 100 mg/mL) and pure compound (stock solution at 100 mg/mL) previously dissolved in M9-buffer were then added in well plates at increasing concentration (varying from 0 to 1000 or 1500 µg/mL for extract and fractions; 0 to 100 or 150 µg/mL). The young adult (10 to 15 ± 2) from the axenic culture (without food source) were then added at the test solution. […] Treatments were replicated three times.

Data set [2] has as its system C. elegans VC722 (glc-2(ok1047) I). Nature of the data set: microbe, parasite or virus in culture. Conditions: for LC50: Caenorhabditis elegans, 48 h. On the procedure: as §1, §2
In data set [3] the test system is C. elegans CB3474 (ben-1(e1880) III). Nature of the data set: microbe, parasite or virus in culture. To be noted: Caenorhabditis elegans, 48 h. How it is done:
as §1, §2

For another data set, the system named is C. elegans N2 Bristol WT. Description: microbe, parasite or virus in culture. To be noted: for Selectivity Index (SI) C. elegans Wild Type: SI = CC50 on Caco-2/LC50 on worm. How it is done:
as §1, §2

Data set [4] concerns C. elegans CB211 (lev-1(e211) IV). Description: microbe, parasite or virus in culture. To be noted: Caenorhabditis elegans, 48 h. On the procedure: as §1, §2
Data set [5] concerns C. elegans DA1316 (avr-14(ad1302) I avr-15(ad1051) glc-1(pk54)). Nature of the data set: microbe, parasite or virus in culture. To be noted: for LC50: Caenorhabditis elegans, 48 h. On the procedure: as §1, §2
The next data set concerns O. ochengi females. Nature of the data set: microbe, parasite or virus in culture. The arrangement: species or system Onchocerca ochengi. To be noted: for Selectivity Index (SI) O. ochengi Females: SI = CC50 on Caco-2/LC50 on worm. On the procedure: The adult female worms were isolated by digestion of the nodules with collagenase at 37 °C. The female worms were cultured in a CO2-incubator [67]. For anthelmintic activity, they were incubated with the crude extracts, fractions and pure compounds.
(§3) Adult worms (six individuals per well for males and one per well for the female) and Mf were washed twice and were subsequently transferred to RPMI-1640 medium supplemented with L-glutamine, 100 U/mL penicillin and 100 µg/mL streptomycin and incubated at 37 °C in 24-well plates (96-well plate for Mf) with different concentrations of the drugs tested. Worm mortality was checked by observation under the binocular microscope after 48 h. After shaking, immotile and fully-elongated worms were considered to be dead. All tests were done in three independent triplicate determinations.

For a further data set, the system named is O. ochengi microfilariae. Nature of the data set: microbe, parasite or virus in culture. Conditions: for Selectivity Index (SI) O. ochengi Microfilariae: SI = CC50 on Caco-2/LC50 on worm. Also on record: species or system Onchocerca ochengi. On the procedure:
Microfilariae were isolated as describe by Cho-Ngwa et al. and Ndjonka et al.. About 10 skin snips were obtained from different locations of the skin. The skin snips were then incubated at 37 °C in PBS to let Mf emerge. The highly motile Mf were concentrated by centrifugation at 400× g for 10 min and quantified. The Mf were incubated at 37 °C with the crude extract, fractions and pure compounds.
as §3

The nature of data set [6]: In vitro cytotoxicity (MTT) and CC50 determination. To be noted: human; for CC50 at 48 h: Caco-2, CC50 after 48 h calculated in µM, read-out: Cytotoxicity CC50, Caco-2 (in brackets) (converted); for CC50 at 72 h: Caco-2, MTT, read-out: Cytotoxicity, means CC50 ± SD, Caco-2. The data set is classed as cell-based. On the procedure:
(§4) Cell culture: […] cells at Passage 70 were kindly provided by Prof. Hensel, Institute of Pharmaceutical Biology and Phytochemistry, University of Münster, and were cultured as previously describe by Zumdick et al..
(§5) Cytotoxicity test: The cytotoxicity assays were performed according to the method of Rahman et al.. Briefly, 1.5 × 10^4 viable cells/well were seeded in a 96-well plate and incubated for 24 to 48 h. […] DMEM samples were used as the negative control. […] The medium was removed, and formazan, generated by the activity of dehydrogenases, was solubilized with 70 µL of acidified isopropanol (0.4 M HCl). The amount of MTT-formazan that is directly proportional to the number of living cells was determined by measuring the optical density (OD) at 540 nm using a spectrophotometer. All controls used were treated equally. As control and to determine 100% growth, Caco-2 cells were grown in the absence of drugs so as to calculate cell viability. All determinations were performed in triplicate. […] The selectivity index (SI) values were calculated as the ratio: SI = CC50 of drug on Caco2/LC50 of drug on worm.

For the next data set, the system named is O. ochengi males. Description: microbe, parasite or virus in culture. To be noted: for Selectivity Index (SI) O. ochengi Males: SI = CC50 on Caco-2/LC50 on worm. The arrangement: species or system Onchocerca ochengi.
Description: The adult male worms were isolated as previously describe by Ndjonka et al. from fresh pieces of cattle skin (cow-udder) with palpable nodules obtained from the communal slaughter house of Ngaoundere in the Adamawa region of Cameroon. Nodules removed from the skin were brought to the laboratory, washed, drained and sterilized with 70% ethanol for dissection. After dissection of nodules, O. ochengi were extracted, isolated and washed three times in sterile phosphate-buffered saline (PBS). To analyze the anthelmintic activity of extract, fractions and pure compounds, the worms were incubated at 37 °C.
as §3

The subject of data set [7] is O. ochengi. Description: Anti-Onchocerca activity, all forms of the parasite (summary statements). Conditions: read-out: LC50 against O. ochengi (all three forms). On the procedure:
as §3

The test system of data set [8] is Caco-2 cells. The arrangement: method as in PMID 22776719. Conditions: at 127 µg/mL; cited from earlier work.
For data set [9], the system named is Caco-2 cells. Nature of the data set: In vitro cytotoxicity (MTT) and CC50 determination. The data set is classed as cell-based. On the procedure: as §4, §5
Data set [10] relates to O. ochengi. Conditions: read-out: LC50 on O. ochengi; stated in the introduction, no reference given; cited from earlier work.
Another data set relates to Wistar rats. Description: Acute oral toxicity on rats.
Where [11] appears, read: read-out: LC50/48 h (in brackets).
The mark [12] stands for this setting: Caenorhabditis elegans, 48 h, read-out: LC50/48 h.
Where [13] appears, read: Onchocerca ochengi, 48 h, read-out: LC50/48 h.
Setting [14] is: Onchocerca ochengi, 48 h, read-out: LC50/48 h (in brackets).

Converted amounts (≈) assume the structure as drawn. Where two headings read alike, the source gives them in different places.

Description for Wistar rats: Adult Wistar rats (Rattus norvegicus), males aged 7 to 8 weeks and weighing 150 to 200 g, used for the experiments were obtained from LANAVET (Laboratoire National Vétérinaire, Garoua, Cameroon). The rats were acclimatized for one week in the Veterinary Research Laboratory of the Institute of Agricultural Research for Development, Wakwa, Cameroon, before initiating experiments. Animals were housed in groups of three (one group for the negative control, six groups for each drug at the first phase, six others at the second phase) under ambient temperatures (23 °C ± 1 °C) with relative humidity 55 ± 5% and 12 h light/dark cycle in polycarbonate cages. […] They were monitored by a veterinarian for health status.
Acute oral toxicity (LD50, that is the dose that kills 50% of animals of the tested group) was measured using the method of the OECD guidelines for the testing of chemicals [56] following the European Community guidelines for the protection of animals used in experiments [69] and respecting the 3Rs (Replacement, Refinement, Reduction) [70]. Drugs in distilled water were orally administered separately at doses of 10 mg/kg, 100 mg/kg and 1000 mg/kg body weight. The negative controls were distilled water-administered rats. They were given to three groups of three rats each and observed for 24 h. […] The test was done at a single oral dose for each rat in a 5 mL/kg volume. The experimental animals were starved for 24 h before and 4 h after treatment. […] The appearance of toxic symptoms, such as behavioral changes, locomotion, convulsions and mortality, was observed and recorded. Animals were observed constantly for the first 30 min after administration and, thereafter, every 4 h up to 24 h and, subsequently, once a day for up to 14 days.

Regarding `O=C(OC1Cc2c(O)cc(O)cc2OC1c1cc(O)c(O)c(O)c1)c1cc(O)c(O)c(O)c1` (single isomer, unassigned; (-)) [EGCG, (−)-epigallocatechin-3-O-gallate], the LC50 in [1] (read-out: LC50/48 h) is above 100 µg/mL; in data set [2] (read-out: LC50/48 h), 43.7 ± 2.1 µg/mL; in [2] (setting [11]), 95.4 µM; in data set [3] (read-out: LC50/48 h) it was 35.7 ± 1 µg/mL; in [3] (setting [11]), 77.9 µM; in the data set on C. elegans N2 Bristol WT (setting [12]) it was 49.8 ± 0.8 µg/mL. Moreover, the LC50 is 109 µM in the data set on C. elegans N2 Bristol WT (Caenorhabditis elegans, 48 h, read-out: LC50/48 h (in brackets)); 26.3 ± 1.3 µg/mL in data set [4] (read-out: LC50/48 h); 57.4 µM in data set [4] (setting [11]); 40.8 ± 0.3 µg/mL in data set [5] (read-out: LC50/48 h); 89.1 µM in [5] (setting [11]); 1 ± 0.5 µg/mL with O. ochengi females (setting [13]). The LC50 in the data set with O. ochengi females (setting [14]) was 2.3 µM; in the data set with O. ochengi microfilariae (setting [13]), 1.3 ± 0.2 µg/mL; with O. ochengi microfilariae (setting [14]), 2.8 µM; with O. ochengi males (setting [13]), 1.2 ± 0.5 µg/mL; in the data set on O. ochengi males (setting [14]), 2.6 µM; in the data set on O. ochengi [7] it was below 2.5 µg/mL. The “Selectivity Index (SI) C. elegans Wild Type” value with C. elegans N2 Bristol WT is recorded as 1.2. Further, the “Selectivity Index (SI) O. ochengi Females” value in the data set on O. ochengi females was determined as 60.9. For the same compound, the “Selectivity Index (SI) O. ochengi Microfilariae” value in the data set on O. ochengi microfilariae was 46.9. The CC50 at 48 h in data set [6] was 133 µM. The CC50 at 72 h in data set [6] is 60.9 ± 0.8 µg/mL (≈ 133 µM). Also, in the data set with O. ochengi males, the “Selectivity Index (SI) O. ochengi Males” value was found to be 50.8.
As for procyanidin, the “Reduction of cell viability” value in the data set on Caco-2 cells [8] is 15%.
Ivermectin [reference compound]: the LC50/48 h in [2] (C. elegans VC722 (ivermectin-resistant)) is above 100 µg/mL; in the data set on C. elegans N2 Bristol WT (C. elegans WT, 48 h, mean ± SD), 1.2 ± 0.1 µg/mL; in [5] (C. elegans DA1316 (ivermectin-resistant)), above 100 µg/mL; in the data set with O. ochengi females (O. ochengi females, 48 h, mean ± SD) it was 1.5 ± 0.3 µg/mL; in the data set on O. ochengi microfilariae (O. ochengi microfilariae, 48 h, mean ± SD) it was 1.5 ± 0.0 µg/mL; with O. ochengi males (O. ochengi males, 48 h, mean ± SD), 1.2 ± 0.5 µg/mL. In addition, the LC50 with C. elegans N2 Bristol WT (read-out: LC50/48 h (in brackets), C. elegans WT, 48 h, calculated in µM) is 1.3 µM; in the data set with O. ochengi females (O. ochengi females, 48 h, calculated in µM, read-out: LC50/48 h (in brackets) (converted)), 1.7 µM; in the data set on O. ochengi microfilariae (O. ochengi microfilariae, 48 h, calculated in µM, read-out: LC50/48 h (in brackets) (converted)), 1.7 µM; with O. ochengi males (O. ochengi males, 48 h, calculated in µM, read-out: LC50/48 h (in brackets) (converted)), 1.3 µM; in the data set with O. ochengi [10] it was 1.7 µM. For the same compound, the CC50 with Caco-2 cells [9] (Caco-2, CC50 after 48 h calculated in µM, read-out: Cytotoxicity CC50, Caco-2 (in brackets) (converted)) was 140 µM. In addition, the “Cytotoxicity, means CC50 ± SD, Caco-2” value with Caco-2 cells [9] (Caco-2, MTT) came out at 28.7 ± 0.7 µg/mL.
Consider `O=C(OC1Cc2c(O)cc(O)cc2OC1c1ccc(O)c(O)c1)c1cc(O)c(O)c(O)c1` (single isomer, unassigned; (-)) [ECG, (−)-epicatechin-3-O-gallate], for which the LC50 in data set [1] (read-out: LC50/48 h) is 39.5 ± 0.9 µg/mL; in data set [1] (setting [11]) it was 76.4 µM; in data set [2] (read-out: LC50/48 h) it was 27.2 ± 1.4 µg/mL; in data set [2] (setting [11]) it was 61.4 µM; in data set [3] (read-out: LC50/48 h) it was 19.6 ± 0.8 µg/mL; in data set [3] (setting [11]), 44.2 µM. The LC50 with C. elegans N2 Bristol WT (setting [12]) is 33.8 ± 2.7 µg/mL; in data set [4] (read-out: LC50/48 h), 41.7 ± 1.2 µg/mL; in data set [4] (setting [11]), 89.3 µM; in [5] (read-out: LC50/48 h) it was 27.4 ± 1.1 µg/mL; in [5] (setting [11]), 61.9 µM; in the data set with O. ochengi females (setting [13]), 2.1 ± 0.6 µg/mL. Further, the LC50 with O. ochengi females (setting [14]) was 4.7 µM; in the data set with O. ochengi microfilariae (setting [13]) it was 1 ± 0.4 µg/mL; with O. ochengi microfilariae (setting [14]), 2.2 µM; in the data set on O. ochengi males (setting [13]), 2.1 ± 0.3 µg/mL; in the data set on O. ochengi males (setting [14]), 4.7 µM; with O. ochengi [7] it was below 2.5 µg/mL. Also, in the data set with C. elegans N2 Bristol WT, the “Selectivity Index (SI) C. elegans Wild Type” value is on record as 2.0. Further, the “Mortality of rats: rat number end/start” value in the data set with Wistar rats (Phase 1, 10 mg/kg single oral dose) was 0/3; with Wistar rats (Phase 1, 100 mg/kg single oral dose) it was 0/3; in the data set with Wistar rats (Phase 1, 1000 mg/kg single oral dose), 0/3; with Wistar rats (Phase 2, 1500 mg/kg single oral dose), 0/3; with Wistar rats (Phase 2, 3000 mg/kg single oral dose), 0/3; with Wistar rats (Phase 2, 5000 mg/kg single oral dose) it was 0/3. In addition, in the data set with O. ochengi females, the “Selectivity Index (SI) O. ochengi Females” value was 32.2. Besides, in the data set with O. ochengi microfilariae, the “Selectivity Index (SI) O. ochengi Microfilariae” value is listed as 67.6. Moreover, the CC50 at 48 h in [6] is 153 µM. The CC50 at 72 h in data set [6] is 67.6 ± 0.5 µg/mL (≈ 153 µM). Besides, in the data set with O. ochengi males, the “Selectivity Index (SI) O. ochengi Males” value was found to be 32.2.

By CC50 is commonly meant the concentration that lowers cell viability or growth by half.

The values above are taken from paper PMC6154738, “Anti-Onchocerca and Anti-Caenorhabditis Activity of a Hydro-Alcoholic Extract from the Fruits of Acacia nilotica and Some Proanthocyanidin Derivatives” (Molecules : A Journal of Synthetic Chemistry and Natural …, 2017).
